This note sets out measurements from US5270047A, “Local delivery of dipyridamole for the treatment of proliferative diseases” (priority 1991, dated 1993).

The subject of this assay is balloon-injured rat carotid arteries. In words: Effect of systemic (dietary) dipyridamole upon intimal thickening after balloon injury of the left common carotid artery. The format is in vivo, male Sprague-Dawley rats. The following applies: two weeks; for Area of Intimal Thickening: control 0.120 ± 0.014. The protocol:
Balloon injury to the left common carotid arteries of male Sprague-Dawley rats (350-400 g) was accomplished by three passes of an inflated 2F Fogarty balloon catheter (Baxter Healthcare, McGaw Park, Ill.) as described by Clowes et al., Lab Invest. 49:208-215 (1983). Animals were anesthetized with Ketamine (80 mg/kg, intramuscular, Aveco, Ft. Dodge, Iowa) and Rompun (16 mg/kg, intramuscular, Mobay Corp., Shawnee, Kans.). Entry of the balloon catheter to the left common carotid artery was made via a nick in the external carotid artery, which was tied off at the end of the surgical procedure. Dipyridamole was systemically administered for two weeks (0.03 and 0.10% wt/wt, as an admixture in the diet, equivalent to approximately 30 and 100 mg/kg/day, respectively).

The mark [1] stands for this setting: 0.03% in diet wt/wt (approximately 30 mg/kg/day).
[2] abbreviates: 0.10% in diet wt/wt (approximately 100 mg/kg/day).

Molecules are shown by their SMILES.

As for `OCCN(CCO)c1nc(N2CCCCC2)c2nc(N(CCO)CCO)nc(N3CCCCC3)c2n1` [Dipyridamole, 2,6-bis(diethanolamino)-4,8-dipiperidinopyrimido[5,4-d]pyrimidine], the “Area of Intimal Thickening (% of control)” value is on record as 97.6 % of control under setting [1] and 90.8 % of control under setting [2]. For the same compound, the “Area of Intimal Thickening” value stood at 0.116 ± 0.017 mm^2 under setting [1] and 0.109 ± 0.014 mm^2 under setting [2]. The “effect upon intimal thickening in the balloon-injured rat carotid arteries” value (0.03 and 0.10% wt/wt in the diet) is given as “No significant effect upon intimal thickening”.
